ChEMBL document CHEMBL6109124, “Identification of effective anti-osteosarcoma agents via screening of an in-house NQO1-targeted compound library” (Bioorg Med Chem, 2025)

Columns and labels:
HOS-TE85 [1] = experiment: Cytotoxicity against human MNNG cells assessed as cell growth inhibition at 1 uM measured after 72 hrs by MTT assay relative to control; type: functional; details: read-out: GI
HOS-TE85 [2] = experiment: Cytotoxicity against human MNNG cells assessed as cell growth inhibition measured after 72 hrs by MTT assay; type: functional, cell-based; details: HOS-TE85, 72 h
[3] = Cytotoxicity against HUVEC assessed as cell growth inhibition measured after 72 hrs by MTT assay; type: toxicity, cell-based; details: human, HUVEC cells
HOS-TE85 [4] = experiment: Cytotoxicity against human MNNG cells assessed as cell growth inhibition at 10 uM measured after 72 hrs by MTT assay relative to control; type: functional; details: read-out: GI
[5] = Selectivity index, ratio of IC50 for cytotoxicity against HUVEC to IC50 for cytotoxicity against human MNNG cells; type: toxicity, cell-based; details: HUVEC and human MNNG cells, read-out: Ratio IC50
[6] = Toxicity in human MNNG cell xenografted Balb/c mouse assessed as reduction in AST level at 30 mg/kg, iv administered every 2 days for 3 weeks and measured post last dose; type: organism-based; details: in vivo, 504 h, time 21 day
[7] = Toxicity in human MNNG cell xenografted Balb/c mouse assessed as body weight loss at 30 mg/kg, iv administered every 2 days for 3 weeks and measured every other day during compound dosing; type: organism-based; details: in vivo, 504 h, time 21 day
HOS-TE85 [8] = experiment: Antitumor activity against human MNNG cells xenografted in Balb/c mouse assessed as tumor growth inhibition at 30 mg/kg, iv administered every 2 days for 3 weeks and measured daily during compound dosing relative to control; type: functional; details: HOS-TE85, 504 h, time 21 day, read-out: TGI
[9] = Toxicity in human MNNG cell xenografted Balb/c mouse assessed as reduction in Cr level at 30 mg/kg, iv administered every 2 days for 3 weeks and measured post last dose; type: organism-based; details: in vivo, 504 h, time 21 day

Row | Compound | inhibition of growth at 1 µM (HOS-TE85 [1]) | IC50 (HOS-TE85 [2]) | IC50 at 72 h [3] | inhibition of growth at 10 µM (HOS-TE85 [4]) | selectivity ratio [5] | Activity [6] | Activity [7] | inhibition in vivo at 30 mg/kg (HOS-TE85 [8]) | Activity [9]
1 | Cc1ccc2c(c1)-c1nc(C#N)c(C#N)nc1C2=O | 35.4% | 1.85 µM | 3.85 µM | 99.9% | 2.08 | – | – | – | –
2 | CC1(C)CCC2=C(O1)c1ccccc1C(=O)C2=O [LAPACHONE] | – | 2.42 µM | 12.5 µM | – | 5.16 | Toxic | Non-toxic | 58.9% | Toxic
